Assay results taken from patent US20210024498A1, “TETRAHYDROPYRROLE COMPOUND, PREPARATION METHOD THEREFOR, PHARMACEUTICAL COMPOSITION CONTAINING SAME, AND USE THEREOF” (MEDICONNS (SHANGHAI) BIOPHARMACEUTICAL CO., LTD, priority 2017, published 2021).

Key:
D2 receptor = biological target: T1, D2 receptor (Homo sapiens, UniProt P14416); assay: D2 receptor function assay, calcium mobilization (FLIPR); assay type: cell-based; conditions: HEK293, antagonism of D2 receptor
T1 construct: expressed in transfected cells; host or cells: HEK293
T1 sequence (P14416 whole entry): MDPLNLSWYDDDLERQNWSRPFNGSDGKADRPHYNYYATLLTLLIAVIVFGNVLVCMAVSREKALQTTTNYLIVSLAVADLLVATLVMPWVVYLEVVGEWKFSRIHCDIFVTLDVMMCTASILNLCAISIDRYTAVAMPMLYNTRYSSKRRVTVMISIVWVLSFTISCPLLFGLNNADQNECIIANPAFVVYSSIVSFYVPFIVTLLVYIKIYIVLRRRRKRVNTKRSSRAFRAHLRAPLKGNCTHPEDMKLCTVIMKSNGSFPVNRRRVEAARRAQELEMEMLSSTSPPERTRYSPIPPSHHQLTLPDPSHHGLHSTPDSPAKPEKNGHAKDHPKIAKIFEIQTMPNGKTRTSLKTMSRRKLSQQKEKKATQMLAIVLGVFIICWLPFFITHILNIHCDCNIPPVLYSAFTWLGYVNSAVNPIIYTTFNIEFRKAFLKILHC
Protocol: (§1) Bioactivity Test • I. D2 receptor affinity assay: The affinity of the compound to D2 receptor was determined by radioligand competition assay, and the cloned D2 receptor was expressed in HEK293 cell line. • II. D2 receptor function assay: The ability of the compound to antagonize the D2 receptor was determined using a calcium mobilization assay (FLIPR). • III. DAT receptor function assay: The ability of the compound to inhibit DAT was determined by neurotransmitter transporter absorption assay.
• Cell line: HEK293 • DMEM medium (Invitrogen) • Fetal bovine serum (FBS, Invitrogen) • L-Glutamine (Invitrogen) G418 (Invitrogen) • Blasticidin (Invitrogen)
• Fluo-4 Direct Kit (Invitrogen)
• 250 mM Probenecid solution was formulated: according to the kit instructions, 1 mL of FLIPR buffer salt solution was added to 77 mg probenecid just before needed. • 2× (8 μM) Fluo-4 Direct™ loading buffer was formulated: the number of tubes in Fluo-4 Direct™ needed for the experiment was melted in advance. Just before needed, 10 ml of FLIPR buffer salt solution and 0.2 mL of 250 mM Probenecid solution were added to each tube and vortexed in dark for more than 5 minutes.
• a) One tube of cells was taken from the liquid nitrogen tank and quickly thawed in 37° C. water bath. • b) The cell suspension was added to a centrifuge tube to which the preheated 20 ml medium was added in advance. • c) The centrifuge tube was centrifuged at 1000 rpm for 5 minutes at room temperature. • d) The supernatant was slowly decanted to avoid affecting the precipitated cells. • e) The cells were resuspended with 10-30 ml medium by pipetting the cells gently with a pipette. • f) The viability and number of cells were calculated with the cell counter. • g) The cells were diluted to 1×10^5 cells/ml with medium, and inoculated in the 384-well polylysine coated cell plate at 20 μL/well. • h) The plate was incubated in an incubator at 5% CO2, 37° C. for 16 to 20 hours.
10 μL of experimental buffer salt solution was added into the cell plate according to the set program, and the fluorescence signal was read. 10 μL of agonist reference compound was further added at a given concentration to the cell plate and the fluorescence signal was read. After reading, the data was derived by “Max-Min” and “Read 90 to Maximum Allowed” methods in the software and EC80 of the corresponding cell line was calculated, and the reference compound with a concentration of 6× EC80 was prepared. • f) The FLIPR instrument software was run. 10 μL of the compound to be tested and the reference compound at a given concentration were added into the cell plate according to the set program, and the fluorescence signal was read. 10 μL of reference compound agonist was further added at a concentration of 6× EC80 to the cell plate and the fluorescence signal was read. • g) Data Analysis • Calculation formula for data in the project:
Inhibitor % activity=100−(signal value per well−average value for high dose control group of inhibitor)/(average value for DMSO control group−average value for high dose control group of inhibitor)*100%.

DAT = DAT (Homo sapiens, UniProt Q01959); assay: DAT transporter assay (neurotransmitter transporter absorption assay); assay type: cell-based
DAT, sequence (Q01959 whole entry, species assumed): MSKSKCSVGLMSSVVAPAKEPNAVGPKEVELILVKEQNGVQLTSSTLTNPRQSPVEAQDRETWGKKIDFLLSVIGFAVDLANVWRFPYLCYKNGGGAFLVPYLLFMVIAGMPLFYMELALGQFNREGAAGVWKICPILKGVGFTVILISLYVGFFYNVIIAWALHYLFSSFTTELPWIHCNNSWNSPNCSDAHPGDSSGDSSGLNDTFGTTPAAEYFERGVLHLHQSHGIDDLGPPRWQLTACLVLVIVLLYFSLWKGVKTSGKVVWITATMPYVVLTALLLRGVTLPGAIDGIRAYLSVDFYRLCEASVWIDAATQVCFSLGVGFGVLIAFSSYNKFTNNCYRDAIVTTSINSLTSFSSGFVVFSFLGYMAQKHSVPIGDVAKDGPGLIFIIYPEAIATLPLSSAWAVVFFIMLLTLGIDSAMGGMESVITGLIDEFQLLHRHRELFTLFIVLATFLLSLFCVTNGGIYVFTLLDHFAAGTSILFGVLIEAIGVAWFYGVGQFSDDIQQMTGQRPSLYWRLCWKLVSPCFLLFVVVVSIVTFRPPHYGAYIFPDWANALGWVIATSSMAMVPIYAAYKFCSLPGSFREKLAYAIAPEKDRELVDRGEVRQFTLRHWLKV
Protocol: as §1
• HBSS1×, REPES 20 mM, BSA 0.1%.
• Lyophilized fluorescent dye 1 vial, Assay buffer 10 mL.
• BTCP—hydrochloride (Sigma)
• i) The medium was preheated in 37° C. water bath in advance for more than 30 minutes for later use. • j) The preheated medium was taken out, disinfected with 75% alcohol, and put into a biosafety cabinet. • k) The cultured cells were taken out from the […], and the medium was removed by a vacuum pump. 1× DPBS was added, incubated for a moment, and then removed by a vacuum pump. Appropriate amount of 0.05% trypsin-EDTA was added for cell digestion. The digestion was terminated by 10% FBS medium, and the cells were pipetted and dispersed. • l) The dispersed cells were transferred into a 50 mL centrifuge tube with a pipette.
• a) The reference compound was diluted in a ratio of 1:3 to 10 concentration gradients with the detection buffer containing 0.1% BSA, with the highest concentration being 2 μM. The compound to be tested was diluted to 20 uM with the detection buffer containing 0.1% BSA. • b) A centrifuge (750 rpm, 15 s) was used to spin off the culture solution in the cell culture plate, and the compound solution in step 1 was transferred to the cell culture plate (25 uL/well). • HC (High control): 25 μL of 0.1% BSA detection buffer containing 0.2% DMSO. • LC (Low control): 25 μL of solution containing 2 μM positive antagonist. • c) After centrifugation at 300 rpm for 15 seconds, the plate was incubated at 37° C. for 30 minutes. After the incubation with the compound was completed, a dye solution (25 μL/well) was added and incubated at 37° C. for 30 minutes.
Inhibitor % activity=100−(signal value per well−average value for LC well)/(average value for H well−average value for LC well)*100%.

IC50 (D2 receptor) [nM] | IC50 (DAT) [nM] | SMILES
171 | 762 | O=S(=O)(CC(F)(F)F)Nc1cccc(C2CCN(Cc3c[nH]c4ccccc34)C2)c1 (stereo not drawn) [MDC-161502-006, 1-(indole-3-methyl)-3-(3-trifluoroethanesulfonamidophenyl)pyrrolidine]
5.4 | 936 | O=S(=O)(Nc1cccc(C2CCN(Cc3c[nH]c4ccccc34)C2)c1)c1cccs1 (stereo not drawn) [MDC-161502-008, 1-(indole-3-methyl)-3-[3-(2-thiophenesulfonamido)phenyl]pyrrolidine]

SMILES | IC50 (D2 receptor) [nM] | IC50 (DAT) [nM]
Oc1cccc(C2CCN(Cc3c[nH]c4ccccc34)C2)c1 (racemic) [MDC-161502-002, 1-(indole-3-methyl)-3-(3-hydroxyphenyl)pyrrolidine] | 2 | 181
